# Experimental data taken from the supplement of paper PMC10307832.
# Legend:
# Assay in all cases: relative viability (nuclei count vs DMSO), 5 days (fraction); higher = more cells survive
# [1] = compound: COC1=CC=C(C=C1)CN2C=CC3=C2C=C(C=C3)C(=O)NO + CC(C)C[C@H](NC(=O)[C@H](Cc1ccccc1)NC(=O)c1cnccn1)B(O)O [Bortezomib] (partner 0.002 µM)
# Procedure, shortened: (§1)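 A single step with final 0.05% Triton X-100, 1% formaldehyde and 1 ug/ml Hoechst fixed the cells and stained nuclei 5 days after treatment. Lung cancer cell lines in 1536-well plates had been treated by pin tool the day after seeding with one drug alone or a fixed anchor-drug dose plus five library-drug doses (not always all listed) in √10 steps, and nuclei were counted on 4× images. Relative viability is the ratio of nuclei in treated wells to nuclei in vehicle wells, taken as the median of duplicate plates.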
# Veliparib + Luminespib = compound: C[C@]1(c2nc3c(C(N)=O)cccc3[nH]2)CCCN1 [Veliparib] + CCNC(=O)c1noc(-c2cc(C(C)C)c(O)cc2O)c1-c1ccc(CN2CCOCC2)cc1 [Luminespib] (partner 0.01 µM)
# Procedure, shortened: as §1
# Veliparib + Dasatinib = compound: C[C@]1(c2nc3c(C(N)=O)cccc3[nH]2)CCCN1 [Veliparib] + Cc1nc(Nc2ncc(C(=O)Nc3c(C)cccc3Cl)s2)cc(N2CCN(CCO)CC2)n1 [Dasatinib] (partner 0.075 µM)
# Procedure, shortened: as §1
# [2] = compound: COC1=CC=C(C=C1)CN2C=CC3=C2C=C(C=C3)C(=O)NO + Nc1ncn([C@H]2C[C@H](O)[C@@H](CO)O2)c(=O)n1 [Decitabine] (partner 2 µM)
# Procedure, shortened: as §1
Cell Line,relative viability ([1]; first compound 0.08 µM),relative viability ([1]; first compound 0.253 µM),relative viability ([1]; first compound 0.8 µM),relative viability ([1]; first compound 2.53 µM),relative viability ([1]; first compound 8 µM),relative viability (Veliparib + Luminespib; first compound 0.02 µM),relative viability (Veliparib + Luminespib; first compound 0.06325 µM),relative viability (Veliparib + Luminespib; first compound 0.2 µM),relative viability (Veliparib + Luminespib; first compound 0.6325 µM),relative viability (Veliparib + Luminespib; first compound 2 µM),relative viability (Veliparib + Dasatinib; first compound 0.02 µM),relative viability (Veliparib + Dasatinib; first compound 0.06325 µM),relative viability (Veliparib + Dasatinib; first compound 0.2 µM),relative viability (Veliparib + Dasatinib; first compound 0.6325 µM),relative viability (Veliparib + Dasatinib; first compound 2 µM),relative viability ([2]; first compound 0.08 µM),relative viability ([2]; first compound 0.253 µM),relative viability ([2]; first compound 0.8 µM),relative viability ([2]; first compound 2.53 µM),relative viability ([2]; first compound 8 µM)
NCI-H1563,0.788,0.916,0.95,0.839,0.69,0.484,0.536,0.526,0.49,0.535,0.462,0.474,0.4,0.491,0.482,,,,,
NCI-H1623,,,,,,,0.467,0.596,0.434,0.409,,0.458,0.598,0.524,0.462,,,,,
NCI-H1648,,,,,,,,,,,,,,,,0.435,0.553,0.554,0.539,0.46
NCI-H1703,0.322,0.403,0.327,0.32,0.26,,,,,,,,,,,,,,,
NCI-H1793,,,,,,0.196,0.174,0.177,0.169,0.181,0.398,0.448,0.408,0.277,0.448,,0.678,0.592,0.662,0.286
NCI-H1944,,,,,,0.698,0.618,0.633,0.613,0.657,0.204,0.196,0.21,0.195,0.219,,0.431,0.384,0.456,0.406
NCI-H2170,,,,,,0.681,0.865,0.719,0.732,0.6,0.549,0.629,0.587,0.562,0.592,0.494,0.514,0.459,0.455,0.43
NCI-H2228,1.22,1.03,0.93,1.18,0.863,0.141,0.0988,0.145,0.123,0.154,0.51,0.509,0.508,0.357,0.467,,,,,
NCI-H2342,,,,,,0.687,0.729,0.594,0.972,0.666,0.293,0.297,0.299,0.321,0.288,0.76,0.733,0.707,0.799,0.769
SK-MES-1,,,,,,0.827,0.467,0.897,0.735,0.898,0.39,0.34,0.432,0.397,0.484,0.397,0.377,0.436,0.369,0.343
SW 900,,,,,,,,0.204,0.19,0.118,,,0.538,0.644,0.696,0.441,0.403,0.446,0.423,0.411
